In general, IC50 refers to the concentration needed to halve the response being measured.

Sequence of hGR (GR-LBD) (P04150 524-758): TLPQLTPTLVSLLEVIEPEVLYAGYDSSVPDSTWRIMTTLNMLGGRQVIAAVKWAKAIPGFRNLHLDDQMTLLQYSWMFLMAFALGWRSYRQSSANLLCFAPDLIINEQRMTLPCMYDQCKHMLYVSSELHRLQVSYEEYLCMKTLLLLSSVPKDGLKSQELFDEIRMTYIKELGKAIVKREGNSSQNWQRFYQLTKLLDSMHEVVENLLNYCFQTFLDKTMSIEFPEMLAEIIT

For the first test, the target named is hGR (GR-LBD) (Homo sapiens (Human), UniProt P04150). Put plainly: hGR CoActivator Recruitment Assay (LanthaScreen TR-Fret GR Coactivator Assay). The test is classed as biochemical. The settings on record: 10-point dilution, top concentration 200 nM, positive control 4 uM dexamethasone, read-out: IC50. The method, then:
hGR CoActivator Recruitment Assay
The activity of glucocorticoid compounds was measured using the LanthaScreen TR-Fret GR Coactivator Assay from Life Technologies (A15899). The compounds were acoustically transferred to an assay plate in a 3-fold 10-point serial dilution with a top concentration of 200 nM. Ten microliters of a 2× solution of GR-LBD was added to the compound plate and incubated for 10 min. Then ten microliters of a 2× solution of Fluoresein-SRC1-4 and Tb labelled anti-GST antibody were added to the plate. The plate was incubated in the dark for two hours and then read on an Envision plate reader, with excitation at 340 nm and emission at 520 nm (Fluorescein) and 490 nm (Terbium). The emission ratio of 520/490 was analyzed in Genedata. To obtain percent activity, the data was compared to a negative control of DMSO and positive control of 4 uM dexamethasone.
Turning to `Cc1ccc(OCc2cccc(N)c2)c(F)c1[C@@H]1O[C@@H]2C[C@H]3[C@@H]4CCC5=CC(=O)C=C[C@]5(C)[C@H]4[C@@H](O)C[C@]3(C)[C@]2(C(=O)CO)O1` [Example 1, (6aR,6bS,7S,8aS,8bS,10R,11aR,12aS,12bS)-10-(3-((3-Aminobenzyl)oxy)-2-fluoro-6-methylphenyl)-7-hydroxy-8b-(2-hydroxyacetyl)-6a,8a-dimethyl-1,2,6a,6b,7,8,8a,8b,11a,12,12a,12b-dodecahydro-4H-naphtho[2′,1′:4,5]indeno[1,2-d][1,3]dioxol-4-one], the half-maximal inhibitory concentration (IC50) stood at 2.12 nM.
With `COc1ccc(OCc2cccc(N)c2)c(F)c1[C@H]1O[C@@H]2C[C@H]3[C@@H]4CCC5=CC(=O)C=C[C@]5(C)[C@H]4[C@@H](O)C[C@]3(C)[C@]2(C(=O)CO)O1` [Example 5, (6aR,6bS,7S,8aS,8bS,10S,11aR,12aS,12bS)-10-(3-((3-Aminobenzyl)oxy)-2-fluoro-6-methoxyphenyl)-7-hydroxy-8b-(2-hydroxyacetyl)-6a,8a-dimethyl-1,2,6a,6b,7,8,8a,8b,11a,12,12a,12b-dodecahydro-4H-naphtho[2′,1′:4,5]indeno[1,2-d][1,3]dioxol-4-one], the IC50 was 1.4 nM.
The same measure, in the same setting: the figure for `COc1ccc(OCc2cccc(N)c2)c(F)c1[C@@H]1O[C@@H]2C[C@H]3[C@@H]4CCC5=CC(=O)C=C[C@]5(C)[C@H]4[C@@H](O)C[C@]3(C)[C@]2(C(=O)CO)O1` [Example 4, (6aR,6bS,7S,8aS,8bS,10R,11aR,12aS,12bS)-10-(3-((3-Aminobenzyl)oxy)-2-fluoro-6-methoxyphenyl)-7-hydroxy-8b-(2-hydroxyacetyl)-6a,8a-dimethyl-1,2,6a,6b,7,8,8a,8b,11a,12,12a,12b-dodecahydro-4H-naphtho[2′,1′:4,5]indeno[1,2-d][1,3]dioxol-4-one] is 2.47 nM; for `Cc1ccc(OCc2cccc(N)c2)c(F)c1[C@H]1O[C@@H]2C[C@H]3[C@@H]4CCC5=CC(=O)C=C[C@]5(C)[C@H]4[C@@H](O)C[C@]3(C)[C@]2(C(=O)CO)O1` [Example 2, (6aR,6bS,7S,8aS,8bS,10S,11aR,12aS,12bS)-10-(3-((3-Aminobenzyl)oxy)-2-fluoro-6-methylphenyl)-7-hydroxy-8b-(2-hydroxyacetyl)-6a,8a-dimethyl-1,2,6a,6b,7,8,8a,8b,11a,12,12a,12b-dodecahydro-4H-naphtho[2′,1′:4,5]indeno[1,2-d][1,3]dioxol-4-one] it is 1.44 nM.

The same test, now with this note: top concentration 200 nM, read-out: relative IC50.
For the compound `C[C@]12C=CC(=O)C=C1CC[C@@H]1[C@@H]2[C@@H](O)C[C@@]2(C)[C@H]1C[C@H]1O[C@H](c3c(F)cccc3OCc3cccc(N)c3)O[C@]12C(=O)CO` [Example 45, (6aR,6bS,7S,8aS,8bS,10S,11aR,12aS,12bS)-10-(2-((3-aminobenzyl)oxy)-6-fluorophenyl)-7-hydroxy-8b-(2-hydroxyacetyl)-6a,8a-dimethyl-1,2,6a,6b,7,8,8a,8b,11a,12,12a,12b-dodecahydro-4H-naphtho[2′,1′:4,5]indeno[1,2-d][1,3]dioxol-4-one], the concentration for half-maximal inhibition (IC50) is above 200 nM.
In the case of `Cc1ccc(OCc2ccccc2N)cc1[C@@H]1O[C@@H]2C[C@H]3[C@@H]4CCC5=CC(=O)C=C[C@]5(C)[C@H]4[C@@H](O)C[C@]3(C)[C@]2(C(=O)CO)O1` [Example 80, (6aR,6bS,7S,8aS,8bS,10R,11aR,12aS,12bS)-10-(5-((2-aminobenzyl)oxy)-2-methylphenyl)-7-hydroxy-8b-(2-hydroxyacetyl)-6a,8a-dimethyl-1,2,6a,6b,7,8,8a,8b,11a,12,12a,12b-dodecahydro-4H-naphtho[2′,1′:4,5]indeno[1,2-d][1,3]dioxol-4-one], the half-inhibitory concentration (IC50) was above 200 nM.
Still for that read-out and setting: in the case of `C[C@]12C=CC(=O)C=C1CC[C@@H]1[C@@H]2[C@@H](O)C[C@@]2(C)[C@H]1C[C@H]1O[C@H](c3c(Cl)cccc3OCc3cccc(N)c3)O[C@]12C(=O)CO` [Example 52, (6aR,6bS,7S,8aS,8bS,10S,11aR,12aS,12bS)-10-(2-((3-aminobenzyl)oxy)-6-chlorophenyl)-7-hydroxy-8b-(2-hydroxyacetyl)-6a,8a-dimethyl-1,2,6a,6b,7,8,8a,8b,11a,12,12a,12b-dodecahydro-4H-naphtho[2′,1′:4,5]indeno[1,2-d][1,3]dioxol-4-one] it was above 200 nM.

The values above are taken from US20250353874A1, “GLUCOCORTICOID RECEPTOR AGONISTS” (Eli Lilly and Company, priority 2021, published 2025).
